ChEMBL document CHEMBL4610097, “Daphnane Diterpenoids from Daphne genkwa Inhibit PI3K/Akt/mTOR Signaling and Induce Cell Cycle Arrest and Apoptosis in Human Colon Cancer Cells” (J Nat Prod, 2020)

Assays:
Format in all cases: functional, cell-based
SW-620 = experiment: Cytotoxicity against human SW620 cells after 24 hrs by MTT assay; settings: SW-620, 24 h
RKO = experiment: Cytotoxicity against human RKO cells after 24 hrs by MTT assay
LoVo = experiment: Cytotoxicity against human LoVo cells after 24 hrs by MTT assay

SMILES	IC50 (SW-620)	IC50 (RKO)	IC50 (LoVo)
C=C(C)[C@@]12O[C@@]3(/C=C/C=C/C=C\CCC)O[C@@H]1[C@@H]1[C@@H]4O[C@]4(CO)[C@@H](O)[C@]4(O)C(=O)C(C)=C[C@H]4[C@@]1(O3)[C@H](C)[C@H]2OC(=O)c1ccccc1	> 10 µM	> 10 µM	> 10 µM
C=C(C)[C@@]12O[C@@]3(c4ccccc4)O[C@@H]1[C@@H]1[C@@H]4O[C@]4(CO)[C@@H](O)[C@]4(O)C(=O)C(C)=C[C@H]4[C@@]1(O3)[C@H](C)[C@H]2OC(=O)CCC	> 10 µM	> 10 µM	> 10 µM
C=C(C)[C@@]12O[C@@]3(/C=C/C=C\CCCCC)O[C@@H]1[C@@H]1[C@@H]4O[C@]4(CO)[C@@H](O)[C@]4(O)C(=O)C(C)=C[C@H]4[C@@]1(O3)[C@H](C)[C@H]2OC(C)=O	> 10 µM	> 10 µM	> 10 µM
C=C(C)[C@@]12O[C@@]3(/C=C/C=C/CCCCC)O[C@@H]1[C@@H]1[C@@H]4O[C@]4(CO)[C@@H](O)[C@]4(O)C(=O)C(C)=C[C@H]4[C@@]1(O3)[C@H](C)[C@H]2OC(=O)C(C)C	> 10 µM	> 10 µM	> 10 µM
C=C(C)[C@@]12O[C@@]3(c4ccccc4)O[C@@H]1[C@@H]1[C@@H]4O[C@]4(CO)[C@@H](O)[C@]4(O)C(=O)C(C)=C[C@H]4[C@@]1(O3)[C@H](C)[C@H]2OC(C)=O	> 10 µM	> 10 µM	> 10 µM
C=C(C)[C@@]12O[C@@]3(/C=C/C=C/CCCCC)O[C@@H]1[C@@H]1[C@@H]4O[C@]4(CO)[C@@H](O)[C@]4(O)C(=O)C(C)=C[C@H]4[C@@]1(O3)[C@H](C)[C@H]2OC(=O)CC	> 10 µM	> 10 µM	> 10 µM
C=C(C)[C@@]12O[C@@]3(/C=C/C=C/CCCCC)O[C@@H]1[C@@H]1[C@@H]4O[C@]4(CO)[C@@H](O)[C@]4(O)C(=O)C(C)=C[C@H]4[C@@]1(O3)[C@H](C)[C@H]2O	> 10 µM	> 10 µM	> 10 µM
C=C(C)[C@@]12O[C@@]3(/C=C/C=C/CCCCC)O[C@@H]1[C@@H]1[C@@H]4O[C@]4(CO)[C@@H](O)[C@]4(O)C(=O)C(C)=C[C@H]4[C@@]1(O3)[C@H](C)[C@H]2OC(C)=O [YUANHUADINE]	> 10 µM	> 10 µM	> 10 µM
C=C(C)[C@@]12O[C@@]3(c4ccccc4)O[C@@H]1[C@@H]1[C@@H]4O[C@]4(CO)[C@@H](O)[C@]4(O)C(=O)C(C)=C[C@H]4[C@@]1(O3)[C@H](C)[C@H]2OC(=O)c1ccccc1	> 10 µM	> 10 µM	> 10 µM
O=c1[nH]cc(F)c(=O)[nH]1 [FLUOROURACIL]	10 µM	> 10 µM	–
C=C(C)[C@@]1(O)[C@H](OC(=O)/C=C/C=C/C=C/CCC)[C@@H]2[C@@H]3O[C@]3(CO)[C@@H](O)[C@]3(O)C(=O)C(C)=C[C@H]3[C@@]2(O)[C@H](C)[C@H]1OC(C)=O	> 10 µM	> 10 µM	> 10 µM
C=C(C)[C@@]1(O)[C@H](O)[C@@H]2[C@@H]3O[C@]3(CO)[C@@H](O)[C@]3(O)C(=O)C(C)=C[C@H]3[C@@]2(O)[C@H](C)[C@H]1OC(C)=O	> 10 µM	> 10 µM	> 10 µM
C=C(C)[C@@]1(O)[C@H](OC(=O)/C=C/C=C/CCCCC)[C@@H]2[C@H](O)[C@@](O)(CO)[C@@H](O)[C@]3(O)C(=O)C(C)=C[C@H]3[C@@]2(O)[C@H](C)[C@H]1OC(=O)c1ccccc1	> 10 µM	> 10 µM	> 10 µM
C=C(C)[C@@]1(O)[C@H](OC(=O)/C=C/C=C/CCCCC)[C@@H]2[C@H](O)[C@@](O)(CO)[C@@H](O)[C@]3(O)C(=O)C(C)=C[C@H]3[C@@]2(O)[C@H](C)[C@H]1OC(C)=O	> 10 µM	> 10 µM	> 10 µM
C=C(C)[C@@]1(O)[C@H](OC(=O)/C=C/C=C/CCCCC)[C@@H]2[C@@H]3O[C@]3(CO)[C@@H](O)[C@]3(O)C(=O)C(C)=C[C@H]3[C@@]2(O)[C@H](C)[C@H]1OC(=O)c1ccccc1 [YUANHUAOATE E]	> 10 µM	> 10 µM	> 10 µM
C=C(C)[C@@]12O[C@@]3(c4ccccc4)O[C@@H]1[C@@H]1[C@H](O)[C@@](O)(CO)[C@@H](O)[C@]4(O)C(=O)C(C)=C[C@H]4[C@@]1(O3)[C@H](C)[C@H]2OC(=O)c1ccccc1	> 10 µM	> 10 µM	> 10 µM
C=C(C)[C@@]12O[C@@]3(/C=C/C=C\CCCCC)O[C@@H]1[C@@H]1[C@@H]4O[C@]4(CO)[C@@H](O)[C@]4(O)C(=O)C(C)=C[C@H]4[C@@]1(O3)[C@H](C)[C@H]2OC(=O)c1ccccc1	8.5 µM	> 10 µM	–
C=C(C)[C@@]12O[C@@]3(/C=C/C=C/CCCCC)O[C@@H]1[C@@H]1[C@@H]4O[C@]4(CO)[C@@H](O)[C@]4(O)C(=O)C(C)=C[C@H]4[C@@]1(O3)[C@H](C)[C@H]2OC(=O)c1ccccc1 [GNIDILATIDIN]	4.3 µM	6.5 µM	–
C=C(C)[C@@]12O[C@@]3(/C=C/C=C/C=C\CCC)O[C@@H]1[C@@H]1[C@@H]4O[C@]4(CO)[C@@H](O)[C@]4(O)C(=O)C(C)=C[C@H]4[C@@]1(O3)[C@H](C)[C@H]2OC(C)=O	> 10 µM	> 10 µM	> 10 µM
C=C(C)[C@@]12O[C@@]3(c4ccccc4)O[C@@H]1[C@@H]1[C@@H]4O[C@]4(CO)[C@@H](O)[C@]4(O)C(=O)C(C)=C[C@H]4[C@@]1(O3)[C@H](C)[C@H]2OC(=O)C(C)C	> 10 µM	> 10 µM	> 10 µM
C=C(C)[C@@]1(O)[C@H](OC(=O)/C=C/C=C/CCCCC)[C@@H]2[C@@H]3O[C@]3(CO)[C@@H](O)[C@]3(O)C(=O)C(C)=C[C@H]3[C@@]2(O)[C@H](C)[C@H]1OC(C)=O	> 10 µM	> 10 µM	> 10 µM
C=C(C)[C@@]12O[C@@]3(/C=C/C=C/CCCCC)O[C@@H]1[C@@H]1[C@@H]4O[C@]4(CO)[C@@H](O)[C@]4(O)C(=O)C(C)=C[C@H]4[C@@]1(O3)[C@H](C)[C@H]2OC(=O)CCC	5.2 µM	9.7 µM	–
